Assay results from patent US7741350B1 (Cara Therapeutics, Inc., priority 2009, dated 2010).
Like-named read-outs stand apart in the source and are kept apart here.

Key:
[1] = biological target: human CB1 receptor (hCB1) (Homo sapiens, UniProt P21554); experiment: cAMP assay at human CB1 receptor; type: cell-based; details: hCB1R; maximum measurable range 30 μM; read-out: EC50 (Potency at Human CB1 determined by cAMP Assay)
Protocol: The ability of each of the compounds to act as agonists or inverse agonists at human CB2 and CB1 receptors (hCB2, hCB1, respectively) and at the rat CB2 receptor (rCB2) was determined by measuring changes in intracellular cyclic AMP (cAMP) levels as described in U.S. Pat. No. 7,517,874.
TR-FRET was measured using a 330-380 nm excitation filter, 615 nm and 665 nm emission filters, dichroic minor 380 nm and Z=10 mm. cAMP concentrations in each well were back-calculated from a cAMP standard curve run concurrently during each assay. Each plate contained 16 wells of forskolin stimulated cells and 16 wells of forskolin plus 1 μM CP55,940-treated cells. Concentrations of cAMP were expressed as a percent of the difference of these two groups of wells. Concentration-response data including EC50 (the concentration of compound producing 50% of the maximal response) and intrinsic activity (the percent maximal activation compared to full activation by CP55, 940) were determined using a four-parameter non-linear regression algorithm (CambridgeSoft Bioassay).

[2] = biological target: human CB2 receptor (hCB2) (Homo sapiens, UniProt P34972); experiment: cAMP assay at human CB2 receptor; type: cell-based; details: hCB2R, maximum measurable range 30 μM
Chain of human CB2 receptor (hCB2) (P34972 whole entry): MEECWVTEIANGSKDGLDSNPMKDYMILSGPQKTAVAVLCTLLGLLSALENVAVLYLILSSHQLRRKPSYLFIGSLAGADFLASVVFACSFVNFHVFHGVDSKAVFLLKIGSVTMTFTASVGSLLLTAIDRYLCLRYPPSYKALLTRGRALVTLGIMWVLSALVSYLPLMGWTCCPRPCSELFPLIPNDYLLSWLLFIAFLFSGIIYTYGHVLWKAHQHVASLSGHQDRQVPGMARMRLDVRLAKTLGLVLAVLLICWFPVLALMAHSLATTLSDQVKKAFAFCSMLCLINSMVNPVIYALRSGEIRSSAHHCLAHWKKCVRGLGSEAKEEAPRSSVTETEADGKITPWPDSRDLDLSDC
Protocol: TR-FRET was measured using a 330-380 nm excitation filter, 615 nm and 665 nm emission filters, dichroic minor 380 nm and Z=10 mm. cAMP concentrations in each well were back-calculated from a cAMP standard curve run concurrently during each assay. Each plate contained 16 wells of forskolin stimulated cells and 16 wells of forskolin plus 1 μM CP55,940-treated cells. Concentrations of cAMP were expressed as a percent of the difference of these two groups of wells.

[3] = read-out: EC50 (Potency at Human CB2 determined by cAMP Assay)
[4] = EC50 (Potency at Human CB2 determined by cAMP Assay)

Chain of human CB1 receptor (hCB1) (P21554 whole entry): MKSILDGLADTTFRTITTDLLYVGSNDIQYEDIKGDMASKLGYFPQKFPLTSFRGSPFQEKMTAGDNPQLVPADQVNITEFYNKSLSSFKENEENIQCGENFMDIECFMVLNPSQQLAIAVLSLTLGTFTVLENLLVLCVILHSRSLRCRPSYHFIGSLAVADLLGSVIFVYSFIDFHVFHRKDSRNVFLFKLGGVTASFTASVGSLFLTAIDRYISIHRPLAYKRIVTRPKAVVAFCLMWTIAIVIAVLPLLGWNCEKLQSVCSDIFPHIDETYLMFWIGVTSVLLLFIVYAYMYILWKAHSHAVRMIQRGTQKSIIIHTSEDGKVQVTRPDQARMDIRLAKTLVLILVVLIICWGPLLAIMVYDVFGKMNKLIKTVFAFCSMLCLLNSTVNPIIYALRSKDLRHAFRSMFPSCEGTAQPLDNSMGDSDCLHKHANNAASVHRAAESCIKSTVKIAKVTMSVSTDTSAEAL

| SMILES | EC50 [1] [µM] | EC50 [2, 3] [µM] | EC50 [2, 4] [µM] |
| --- | --- | --- | --- |
| CC(C)C[C@H](NC(=O)[C@@H](NC(=O)n1nc(-c2cc(F)c(F)cc2F)c2c1CCN(C)C2)C(C)(C)C)C(N)=O [Compound 72, N—((S)-1-((S)-1-amino-4-methyl-1-oxopentan-2-ylamino)-3,3-dimethyl-1-oxobutan-2-yl)-5-methyl-3-(2,4,5-trifluorophenyl)-4,5,6,7-tetrahydro-1H-pyrazolo[4,3-c]pyridine-1-carboxamide] | > 1 | > 1 |  |
| CC[C@H](C)[C@H](NC(=O)n1nc(-c2ccc(F)c(F)c2)c2c1CCN(C)C2)C(N)=O [Compound 50, N-((2S,3S)-1-amino-3-methyl-1-oxopentan-2-yl)-3-(3,4-difluorophenyl)-5-methyl-4,5,6,7-tetrahydro-1H-pyrazolo[4,3-c]pyridine-1-carboxamide] | < 1 |  | < 1 |
| CC(C)(C)[C@@H](CO)NC(=O)n1nc(-c2cc(F)c(F)cc2F)c2c1CCOC2 [Compound 33, (S)—N-(1-hydroxy-3,3-dimethylbutan-2-yl)-3-(2,4,5-trifluorophenyl)-6,7-dihydropyrano[4,3-c]pyrazole-1(4H)-carboxamide] | < 1 |  | < 1 |
| CNC(=O)[C@@H](NC(=O)n1nc(-c2cc(F)c(F)cc2F)c2c1CCCN2C)C(C)(C)C [Compound 39, (S)—N-(3,3-dimethyl-1-(methylamino)-1-oxobutan-2-yl)-4-methyl-3-(2,4,5-trifluorophenyl)-4,5,6,7-tetrahydro-1H-pyrazolo[4,3-b]pyridine-1-carboxamide] | < 1 |  | < 1 |
| CCOC(=O)CN1CCCc2c1c(-c1ccc(F)c(F)c1)nn2C(=O)N[C@H](C(=O)NC)C(C)(C)C [Compound 100, (S)-ethyl 2-(3-(3,4-difluorophenyl)-1-(3,3-dimethyl-1-(methylamino)-1-oxobutan-2-ylcarbamoyl)-6,7-dihydro-1H-pyrazolo[4,3-b]pyridin-4(5H)-yl)acetate] | < 1 |  | < 1 |
| CN1CCc2c(c(-c3cc(F)c(F)cc3F)nn2C(=O)N[C@H](C(=O)N2CCC[C@H](O)C2)C(C)(C)C)C1 [Compound 78] | < 1 | > 1 |  |
| CN1CCc2c(c(-c3cc(F)c(F)cc3F)nn2C(=O)N[C@H](C(=O)N2CCC(C(N)=O)CC2)C(C)(C)C)C1 [Compound 79, (S)—N-(1-(4-carbamoylpiperidin-1-yl)-3,3-dimethyl-1-oxobutan-2-yl)-5-methyl-3-(2,4,5-trifluorophenyl)-4,5,6,7-tetrahydro-1H-pyrazolo[4,3-c]pyridine-1-carboxamide] | < 1 | > 1 |  |
| CN1CCc2c(c(-c3cc(F)c(F)cc3F)nn2C(=O)N[C@H](C(=O)N2CCC[C@@H]2C(N)=O)C(C)(C)C)C1 [Compound 75, N—((S)-1-((R)-2-carbamoylpyrrolidin-1-yl)-3,3-dimethyl-1-oxobutan-2-yl)-5-methyl-3-(2,4,5-trifluorophenyl)-4,5,6,7-tetrahydro-1H-pyrazolo[4,3-c]pyridine-1-carboxamide] | < 1 | > 1 |  |
| CN1CCc2c(c(-c3cc(F)c(F)cc3F)nn2C(=O)N[C@H](C(=O)NCCC(N)=O)C(C)(C)C)C1 [Compound 73, (S)—N-(1-(3-amino-3-oxopropylamino)-3,3-dimethyl-1-oxobutan-2-yl)-5-methyl-3-(2,4,5-trifluorophenyl)-4,5,6,7-tetrahydro-1H-pyrazolo[4,3-c]pyridine-1-carboxamide] | < 1 | > 1 |  |
| CC(C)(C)c1csc(NC(=O)n2nc(-c3ccc(F)c(F)c3)c3c2CCOC3)n1 [Compound 56, N-(4-tert-butylthiazol-2-yl)-3-(3,4-difluorophenyl)-6,7-dihydropyrano[4,3-c]pyrazole-1(4H)-carboxamide] | < 1 | < 1 |  |
| CN1CCc2c(c(-c3cc(F)c(F)cc3F)nn2C(=O)N[C@@H](CO)c2ccccc2)C1 [Compound 70, (R)—N-(2-hydroxy-1-phenylethyl)-5-methyl-3-(2,4,5-trifluorophenyl)-4,5,6,7-tetrahydro-1H-pyrazolo[4,3-c]pyridine-1-carboxamide] | < 1 | > 1 |  |
| CN1CCc2c(c(-c3cc(F)ccc3F)nn2C(=O)N[C@H](C(=O)O)C(C)(C)C)C1 [Compound 81, (S)-2-(3-(2,5-difluorophenyl)-5-methyl-4,5,6,7-tetrahydro-1H-pyrazolo[4,3-c]pyridine-1-carboxamido)-3,3-dimethylbutanoic acid] | > 30 | > 30 |  |
| CC(C)(C)[C@H](NC(=O)n1nc(-c2cc(F)c(F)cc2F)c2c1COCC2)C(=O)NCCO [Compound 97, (S)—N-(1-(2-hydroxyethylamino)-3,3-dimethyl-1-oxobutan-2-yl)-3-(2,4,5-trifluorophenyl)-4,5-dihydropyrano[3,4-c]pyrazole-1(7H)-carboxamide] | < 1 |  | < 1 |
| CC(C)C[C@H](NC(=O)n1nc(-c2ccc(F)c(F)c2)c2c1CCN(C)C2)C(N)=O [Compound 49, (S)—N-(1-amino-4-methyl-1-oxopentan-2-yl)-3-(3,4-difluorophenyl)-5-methyl-4,5,6,7-tetrahydro-1H-pyrazolo[4,3-c]pyridine-1-carboxamide] | < 1 |  | < 1 |
| CNC(=O)[C@@H](NC(=O)n1nc(-c2ccc(F)c(F)c2)c2c1CCC(NC)C2)C(C)(C)C (stereo partly drawn) [Compound 68, 3-(3,4-difluorophenyl)-N—((S)-3,3-dimethyl-1-(methylamino)-1-oxobutan-2-yl)-5-(methylamino)-4,5,6,7-tetrahydro-1H-indazole-1-carboxamide] | < 1 |  | < 1 |
| CC(C)(C)c1cc(NC(=O)n2nc(-c3ccc(F)c(F)c3)c3c2CCOC3)no1 [Compound 57] | > 1 | < 1 |  |
| CCOC(=O)CN1CCc2c(c(-c3cc(F)c(F)cc3F)nn2C(=O)N[C@H](C(=O)NC)C(C)(C)C)C1 [Compound 83, (S)-ethyl 2-(1-(3,3-dimethyl-1-(methylamino)-1-oxobutan-2-ylcarbamoyl)-3-(2,4,5-trifluorophenyl)-6,7-dihydro-1H-pyrazolo[4,3-c]pyridin-5(4H)-yl)acetate] | < 1 | > 1 |  |
| CN1CCc2c(c(-c3ccc(F)c(F)c3)nn2C(=O)NC(C)(C)C)C1 [Compound 46, N-tert-butyl-3-(3,4-difluorophenyl)-5-methyl-4,5,6,7-tetrahydro-1H-pyrazolo[4,3-c]pyridine-1-carboxamide] | < 1 | > 1 |  |
| CNC(=O)[C@@H](NC(=O)n1nc(-c2ccc(F)c(F)c2)c2c1CCC1(C2)OCCO1)C(C)(C)C [Compound 63, (S)-3′-(3,4-difluorophenyl)-N-(3,3-dimethyl-1-(methylamino)-1-oxobutan-2-yl)-6′,7′-dihydrospiro[[1,3]dioxolane-2,5′-indazole]-1′(4′H)-carboxamide] | < 1 |  | < 1 |
| CCN1CCc2c(c(-c3cc(F)ccc3F)nn2C(=O)N[C@H](C(=O)O)C(C)(C)C)C1 [Compound 82, (S)-2-(3-(2,5-difluorophenyl)-5-ethyl-4,5,6,7-tetrahydro-1H-pyrazolo[4,3-c]pyridine-1-carboxamido)-3,3-dimethylbutanoic acid] | > 30 |  | > 30 |
| CCN1CCc2c(c(-c3cc(F)ccc3F)nn2C(=O)N[C@H](C(=O)NC)C(C)(C)C)C1 [Compound 65, (S)-3-(2,5-difluorophenyl)-N-(3,3-dimethyl-1-(methylamino)-1-oxobutan-2-yl)-5-ethyl-4,5,6,7-tetrahydro-1H-pyrazolo[4,3-c]pyridine-1-carboxamide] | < 1 |  | < 1 |
| CC(C)(C)[C@H](NC(=O)n1nc(-c2cc(F)c(F)cc2F)c2c1CCOC2)C(=O)N1CC[C@H](O)C1 [Compound 31, N—((S)-1-((S)-3-hydroxypyrrolidin-1-yl)-3,3-dimethyl-1-oxobutan-2-yl)-3-(2,4,5-trifluorophenyl)-6,7-dihydropyrano[4,3-c]pyrazole-1(4H)-carboxamide] | < 1 | < 1 |  |
| CNC(=O)[C@@H](NC(=O)n1nc(-c2cc(F)c(F)cc2F)c2c1CCN(CCO)C2)C(C)(C)C [Compound 85, (S)—N-(3,3-dimethyl-1-(methylamino)-1-oxobutan-2-yl)-5-(2-hydroxyethyl)-3-(2,4,5-trifluorophenyl)-4,5,6,7-tetrahydro-1H-pyrazolo[4,3-c]pyridine-1-carboxamide] | < 1 |  | < 1 |
| CN1CCc2c(c(-c3cc(F)c(F)cc3F)nn2C(=O)N[C@H](C(=O)NCCCO)C(C)(C)C)C1 [Compound 80, (S)—N-(1-(3-hydroxypropylamino)-3,3-dimethyl-1-oxobutan-2-yl)-5-methyl-3-(2,4,5-trifluorophenyl)-4,5,6,7-tetrahydro-1H-pyrazolo[4,3-c]pyridine-1-carboxamide] | < 1 | > 1 |  |
